Test results from ChEMBL document CHEMBL1201861, “Genomics of Drug Sensitity in Cancer screening data, Wellcome Trust Sanger Institute”.

Tests used:
Test in all cases: cells
[1] = test system: COLO-829; assay type: functional, cell-based, Homo sapiens; conditions: Homo sapiens, COLO-829
Description: SANGER: Inhibition of human COLO-829 cell growth in a cell viability assay.

[2] = test system: D-502MG; assay type: functional, cell-based, Homo sapiens; conditions: Homo sapiens, D-502MG
Description: SANGER: Inhibition of human D-502MG cell growth in a cell viability assay.

[3] = test system: DEL; assay type: functional, cell-based, Homo sapiens; conditions: Homo sapiens, DEL;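 also: growth inhibition of the human DEL cell line, read out with a cell viability assay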
Description: SANGER: Inhibition of human DEL cell growth in a cell viability assay.

[4] = test system: ES8; assay type: functional, cell-based, Homo sapiens; conditions: Homo sapiens, ES8;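 also: growth inhibition of human ES8 cells, read out with a cell viability assay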
Description: SANGER: Inhibition of human ES8 cell growth in a cell viability assay.

[5] = test system: EW-16; assay type: functional, cell-based, Homo sapiens; conditions: Homo sapiens, EW-16;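 also: growth inhibition of human EW-16 cells, read out as cell viability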
Description: SANGER: Inhibition of human EW-16 cell growth in a cell viability assay.

[6] = test system: EOL1; assay type: functional, cell-based, Homo sapiens; conditions: Homo sapiens, EOL1;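 also: growth inhibition of EoL-1 cells, read out by a cell viability assay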
Description: SANGER: Inhibition of human EoL-1-cell cell growth in a cell viability assay.

[7] = test system: GB-1; assay type: functional, cell-based, Homo sapiens; conditions: Homo sapiens, GB-1;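 also: growth of GB-1 cells judged by a viability assay, IC50 marks the concentration inhibiting growth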
Description: SANGER: Inhibition of human GB-1 cell growth in a cell viability assay.

[8] = test system: HCC2218; assay type: functional, cell-based, Homo sapiens; conditions: Homo sapiens, HCC2218;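 also: cell viability assay read-out, with IC50 given as the concentration that inhibits growth of the cell line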
Description: SANGER: Inhibition of human HCC2218 cell growth in a cell viability assay.

[9] = test system: HCE-T; assay type: functional, cell-based, Homo sapiens; conditions: Homo sapiens, HCE-T;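 also: cell viability assay read-out, reporting inhibition of HCE-T cell growth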
Description: SANGER: Inhibition of human HCE-T cell growth in a cell viability assay.

[10] = test system: J-RT3-T3-5; assay type: functional, cell-based, Homo sapiens; conditions: Homo sapiens, J-RT3-T3-5;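 also: cell viability assay measuring growth inhibition of human J-RT3-T3-5 cells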
Description: SANGER: Inhibition of human J-RT3-T3-5 cell growth in a cell viability assay.

[11] = test system: KARPAS-299; assay type: functional, cell-based, Homo sapiens; conditions: Homo sapiens, KARPAS-299
Description: SANGER: Inhibition of human KARPAS-299 cell growth in a cell viability assay.

[12] = test system: KARPAS-45; assay type: functional, cell-based, Homo sapiens; conditions: Homo sapiens, KARPAS-45;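 also: inhibition of cell line growth, read out through a viability assay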
Description: SANGER: Inhibition of human KARPAS-45 cell growth in a cell viability assay.

[13] = test system: KGN; assay type: functional, cell-based, Homo sapiens; conditions: Homo sapiens, KGN;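 also: growth inhibition of KGN cells, read out with a cell viability assay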
Description: SANGER: Inhibition of human KGN cell growth in a cell viability assay.

[14] = test system: KLE; assay type: functional, cell-based; conditions: Homo sapiens;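 also: growth inhibition of human KLE cells, read out with a cell viability assay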
Description: SANGER: Inhibition of human KLE cell growth in a cell viability assay.

[15] = test system: KM-H2; assay type: functional, cell-based, Homo sapiens; conditions: Homo sapiens, KM-H2;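 also: growth inhibition of KM-H2 cells, read out by a cell viability assay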
Description: SANGER: Inhibition of human KM-H2 cell growth in a cell viability assay.

[16] = test system: KM12; assay type: functional, cell-based, Homo sapiens; conditions: Homo sapiens, KM12;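 also: KM12 cell growth inhibition, read out with a cell viability assay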
Description: SANGER: Inhibition of human KM12 cell growth in a cell viability assay.

[17] = test system: KNS-42; assay type: functional, cell-based; conditions: Homo sapiens;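 also: growth inhibition of KNS-42 cells, read out with a cell viability assay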
Description: SANGER: Inhibition of human KNS-42 cell growth in a cell viability assay.

[18] = test system: KU812 cell line; assay type: functional, cell-based, Homo sapiens; conditions: Homo sapiens, KU812;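 also: growth inhibition of KU812 cells, read out with a cell viability assay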
Description: SANGER: Inhibition of human KU812 cell growth in a cell viability assay.

[19] = test system: L-428; assay type: functional, cell-based, Homo sapiens; conditions: Homo sapiens, L-428
Description: SANGER: Inhibition of human L-428 cell growth in a cell viability assay.

[20] = test system: LB2241-RCC; assay type: functional, cell-based, Homo sapiens; conditions: Homo sapiens, LB2241-RCC;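 also: cell viability assay measuring how strongly the cultured human renal carcinoma line is prevented from growing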
Description: SANGER: Inhibition of human LB2241-RCC cell growth in a cell viability assay.

[21] = test system: LB831-BLC; assay type: functional, cell-based, Homo sapiens; conditions: Homo sapiens, LB831-BLC;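 also: growth inhibition of LB831-BLC cells, read out with a cell viability assay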
Description: SANGER: Inhibition of human LB831-BLC cell growth in a cell viability assay.

[22] = test system: LS-513; assay type: functional, cell-based, Homo sapiens; conditions: Homo sapiens, LS-513
Description: SANGER: Inhibition of human LS-513 cell growth in a cell viability assay.

[23] = test system: MFM-223; assay type: functional, cell-based, Homo sapiens; conditions: Homo sapiens, MFM-223
Description: SANGER: Inhibition of human MFM-223 cell growth in a cell viability assay.

[24] = test system: MZ7-mel; assay type: functional, cell-based, Homo sapiens; conditions: Homo sapiens, MZ7-mel;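 also: growth inhibition of human MZ7-mel cells, measured by a cell viability assay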
Description: SANGER: Inhibition of human MZ7-mel cell growth in a cell viability assay.

[25] = test system: Mo; assay type: functional, cell-based, Homo sapiens; conditions: Homo sapiens, Mo
Description: SANGER: Inhibition of human Mo-T cell growth in a cell viability assay.

[26] = test system: NCI-H1304; assay type: functional, cell-based, Homo sapiens; conditions: Homo sapiens, NCI-H1304;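 also: growth inhibition of the cancer cell line, measured in a cell viability assay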
Description: SANGER: Inhibition of human NCI-H1304 cell growth in a cell viability assay.

[27] = test system: SNU1; assay type: functional, cell-based, Homo sapiens; conditions: Homo sapiens, SNU1;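 also: growth inhibition of human NCI-SNU-1 cells, measured with a cell viability assay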
Description: SANGER: Inhibition of human NCI-SNU-1 cell growth in a cell viability assay.

[28] = test system: NEC8; assay type: functional, cell-based, Homo sapiens; conditions: Homo sapiens, NEC8;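 also: growth inhibition of human NEC8 cells, read out by a cell viability assay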
Description: SANGER: Inhibition of human NEC8 cell growth in a cell viability assay.

[29] = test system: OVCAR-4; assay type: functional, cell-based, Homo sapiens; conditions: Homo sapiens, OVCAR-4;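 also: growth inhibition of human OVCAR-4 cells, measured with a cell viability assay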
Description: SANGER: Inhibition of human OVCAR-4 cell growth in a cell viability assay.

[30] = test system: RPMI-8866; assay type: functional, cell-based, Homo sapiens; conditions: Homo sapiens, RPMI-8866
Description: SANGER: Inhibition of human RPMI-8866 cell growth in a cell viability assay.

[31] = test system: SCC-15; assay type: functional, cell-based, Homo sapiens; conditions: Homo sapiens, SCC-15;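 also: growth inhibition of SCC-15 cells, read out with a cell viability assay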
Description: SANGER: Inhibition of human SCC-15 cell growth in a cell viability assay.

[32] = test system: SF-539; assay type: functional, cell-based, Homo sapiens; conditions: Homo sapiens, SF-539;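 also: Read-out is a cell viability assay, with IC50 reflecting inhibition of cell growth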
Description: SANGER: Inhibition of human SF539 cell growth in a cell viability assay.

[33] = test system: SHP77; assay type: functional, cell-based, Homo sapiens, SHP-77; conditions: Homo sapiens, SHP77;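 also: growth inhibition of human SHP-77 cells measured by a cell viability assay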
Description: SANGER: Inhibition of human SHP-77 cell growth in a cell viability assay.

[34] = test system: SK-MEL-1; assay type: functional, cell-based, Homo sapiens; conditions: Homo sapiens, SK-MEL-1;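 also: growth inhibition of human SK-MEL-1 cells, read out by a cell viability assay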
Description: SANGER: Inhibition of human SK-MEL-1 cell growth in a cell viability assay.

[35] = test system: SK-N-FI; assay type: functional, cell-based, Homo sapiens; conditions: Homo sapiens, SK-N-FI;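 also: cell viability assay measuring growth inhibition of human SK-N-FI cells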
Description: SANGER: Inhibition of human SK-N-FI cell growth in a cell viability assay.

[36] = test system: SK-UT-1; assay type: functional, cell-based, Homo sapiens; conditions: Homo sapiens, SK-UT-1;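 also: growth inhibition of SK-UT-1 cells, measured by a cell viability assay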
Description: SANGER: Inhibition of human SK-UT-1 cell growth in a cell viability assay.

[37] = test system: SNU-C2B; assay type: functional, cell-based; conditions: Homo sapiens;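 also: cell viability readout used to measure compound-driven suppression of SNU-C2B cell proliferation, IC50 marking half-maximal growth inhibition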
Description: SANGER: Inhibition of human SNU-C2B cell growth in a cell viability assay.

[38] = test system: SW872; assay type: functional, cell-based, Homo sapiens; conditions: Homo sapiens, SW872;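 also: growth inhibition of SW872 cells, read out by a viability assay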
Description: SANGER: Inhibition of human SW872 cell growth in a cell viability assay.

[39] = test system: SW982; assay type: functional, cell-based; conditions: Homo sapiens;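 also: growth inhibition of SW982 cells, read out with a cell viability assay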
Description: SANGER: Inhibition of human SW982 cell growth in a cell viability assay.

[40] = test system: 697; assay type: functional, cell-based, Homo sapiens; conditions: Homo sapiens
Description: SANGER: Inhibition of human 697 cell growth in a cell viability assay.

[41] = test system: ATN-1; assay type: functional, cell-based, Homo sapiens; conditions: Homo sapiens, ATN-1;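 also: growth inhibition of human ATN-1 cells, read out with a cell viability assay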
Description: SANGER: Inhibition of human ATN-1 cell growth in a cell viability assay.

[42] = test system: TE-5; assay type: functional, cell-based, Homo sapiens; conditions: Homo sapiens, TE-5;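 also: inhibition of cell growth, read out by a cell viability assay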
Description: SANGER: Inhibition of human TE-5 cell growth in a cell viability assay.

[43] = test system: TGBC1TKB; assay type: functional, cell-based, Homo sapiens; conditions: Homo sapiens, TGBC1TKB;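 also: growth inhibition of TGBC1TKB cells, read out by a cell viability assay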
Description: SANGER: Inhibition of human TGBC1TKB cell growth in a cell viability assay.

[44] = test system: CAS-1; assay type: functional, cell-based, Homo sapiens; conditions: Homo sapiens, CAS-1;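 also: growth inhibition of CAS-1 cells, measured with a cell viability assay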
Description: SANGER: Inhibition of human CAS-1 cell growth in a cell viability assay.

[45] = test system: CCRF-CEM; assay type: functional, cell-based, Homo sapiens; conditions: Homo sapiens, CCRF-CEM;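 also: inhibition of CCRF-CEM cell growth, measured by a cell viability assay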
Description: SANGER: Inhibition of human CCRF-CEM cell growth in a cell viability assay.

[46] = test system: COLO-684; assay type: functional, cell-based, Homo sapiens; conditions: Homo sapiens, COLO-684
Description: SANGER: Inhibition of human COLO-684 cell growth in a cell viability assay.

`NC(=O)Nc1cc(-c2cccc(F)c2)sc1C(=O)N[C@H]1CCCNC1` [AZD-7762] gave an IC50 [1] of 298 nM, an IC50 [2] greater than 2000 nM and an IC50 [3] of 45.9 nM. For the same molecule, the IC50 [4] was 99.2 nM, the IC50 [5] was 538 nM and the IC50 [6] was less than 7.81 nM. It also gave an IC50 [7] of 1380 nM, an IC50 [8] greater than 2000 nM and an IC50 [9] of 442 nM. The IC50 [10] was 267 nM, the IC50 [11] was greater than 2000 nM and the IC50 [12] was 168 nM. It also gave an IC50 [13] of 1230 nM, an IC50 [14] greater than 2000 nM and an IC50 [15] of 1220 nM. It also gave an IC50 [16] of 51.6 nM, an IC50 [17] greater than 2000 nM and an IC50 [18] of 168 nM. The IC50 [19] was greater than 2000 nM, the IC50 [20] was 61 nM and the IC50 [21] was greater than 2000 nM. For the same molecule, the IC50 [22] was 749 nM, the IC50 [23] was 1240 nM and the IC50 [24] was 347 nM. The IC50 [25] was greater than 2000 nM, the IC50 [26] was greater than 2000 nM and the IC50 [27] was 271 nM. For the same molecule, the IC50 [28] was 42 nM, the IC50 [29] was 320 nM and the IC50 [30] was 139 nM. It also gave an IC50 [31] greater than 2000 nM, an IC50 [32] of 137 nM and an IC50 [33] greater than 2000 nM. The IC50 [34] was greater than 2000 nM, the IC50 [35] was 1490 nM and the IC50 [36] was 186 nM. For the same molecule, the IC50 [37] was 281 nM, the IC50 [38] was greater than 2000 nM and the IC50 [39] was 784 nM. The IC50 [40] was 111 nM, the IC50 [41] was 34.2 nM and the IC50 [42] was 1420 nM. It also gave an IC50 [43] of 1920 nM, an IC50 [44] of 1210 nM and an IC50 [45] of 292 nM. The IC50 [46] was 294 nM.

Work on `CN(NC(=O)CC(=O)NN(C)C(=S)c1ccccc1)C(=S)c1ccccc1` [ELESCLOMOL] yielded an IC50 [1] of 43.1 nM, an IC50 [2] of 25.8 nM and an IC50 [3] of 19.2 nM. The IC50 [4] was 1.32 nM, the IC50 [5] was 1.61 nM and the IC50 [6] was 62 nM. For the same molecule, the IC50 [7] was 6.71 nM, the IC50 [8] was greater than 200 nM and the IC50 [9] was 4.45 nM. For the same molecule, the IC50 [10] was 14.4 nM, the IC50 [11] was 37.4 nM and the IC50 [12] was greater than 200 nM. The IC50 [13] was greater than 200 nM, the IC50 [14] was greater than 200 nM and the IC50 [15] was greater than 200 nM. For the same molecule, the IC50 [16] was greater than 200 nM, the IC50 [17] was greater than 200 nM and the IC50 [18] was greater than 200 nM. For the same molecule, the IC50 [19] was greater than 200 nM, the IC50 [20] was 56.4 nM and the IC50 [21] was 27.7 nM. For the same molecule, the IC50 [22] was 82 nM, the IC50 [23] was 45.2 nM and the IC50 [24] was 12.7 nM. For the same molecule, the IC50 [25] was greater than 200 nM, the IC50 [26] was greater than 200 nM and the IC50 [27] was 4.86 nM. For the same molecule, the IC50 [28] was 11.5 nM, the IC50 [29] was 5.87 nM and the IC50 [30] was 30 nM. The IC50 [31] was 25.6 nM, the IC50 [32] was 24.4 nM and the IC50 [33] was greater than 200 nM. For the same molecule, the IC50 [34] was greater than 200 nM, the IC50 [35] was 81.5 nM and the IC50 [36] was 14.1 nM. For the same molecule, the IC50 [37] was greater than 200 nM, the IC50 [38] was greater than 200 nM and the IC50 [39] was 7.44 nM. The IC50 [40] was 6.13 nM, the IC50 [41] was greater than 200 nM and the IC50 [42] was 15 nM. The IC50 [43] was 33.3 nM, the IC50 [44] was 116 nM and the IC50 [45] was greater than 200 nM. The IC50 [46] was 9.21 nM.

For `CO[C@@H]1[C@H](N(C)C(=O)c2ccccc2)C[C@H]2O[C@]1(C)n1c3ccccc3c3c4c(c5c6ccccc6n2c5c31)C(=O)NC4` [MIDOSTAURIN], the IC50 [11] was greater than 512 nM, the IC50 [12] was greater than 512 nM and the IC50 [16] was 92.8 nM. It also gave an IC50 [31] greater than 512 nM, an IC50 [36] of 330 nM and an IC50 [38] greater than 512 nM. It also gave an IC50 [43] greater than 512 nM, an IC50 [44] of 182 nM and an IC50 [46] greater than 512 nM.
